Data published in patent US9006388B2, “Covalent attachment of ligands to nucleophilic proteins guided by non-covalent” (priority 2003, dated 2015).

Key:
calmodulin = calmodulin (Homo sapiens, UniProt P0DP23); experiment: Irreversible CAL binding by calmodulin
[1] = system: monoclonal anti-VIP IgG clone c23.5; experiment: Covalent CAL binding by monoclonal anti-VIP IgG c23.5
trypsin = molecular target: T1, trypsin (Sus scrofa, UniProt P00761); experiment: Irreversible hapten CAL binding by trypsin; design: species or system porcine; settings: hapten CAL 100 μM
T1 construct: purchased Sigma type IX
T1 sequence (P00761 9-231): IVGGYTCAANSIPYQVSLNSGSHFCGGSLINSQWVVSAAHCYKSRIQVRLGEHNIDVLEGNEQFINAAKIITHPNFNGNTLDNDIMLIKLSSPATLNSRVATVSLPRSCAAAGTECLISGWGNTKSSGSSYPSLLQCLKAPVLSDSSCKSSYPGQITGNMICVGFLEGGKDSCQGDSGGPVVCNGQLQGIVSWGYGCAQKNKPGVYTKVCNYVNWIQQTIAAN

plasma proteins = experiment: CAL reaction in the presence of human plasma; assay type: binding; settings: human plasma 1% v/v, CAL 10 μM, 1 h
gp120 (MN strain) = molecular target: T2, gp120 (MN strain) (Human immunodeficiency virus type 1 group M subtype B, UniProt P05877); experiment: Irreversible hapten CAL binding by gp120; design: species or system HIV
T2 construct: purchased

[2] = system: human polyclonal IgG HS-2; experiment: Irreversible inhibition of HS-2 IgG-catalyzed [Tyr10-125I]-VIP cleavage; assay type: biochemical; settings: IgG 2 μM preincubated 16 h, unreacted CAL removed
murine splenocytes = experiment: Hapten CAL I reactivity with spleen cells (microscopy, flow cytometry); assay type: cell-based, BALB/c mouse
Excerpt: BCR covalent reaction with hapten CALs. hapten CALs such as compound I (FIG. 19) react irreversibly with nucleophilic sites in conventional serine proteases and Abs (3,35,44-47). Methods for synthesis of this compound, preparation of B cells from mice, flow cytometric analysis of binding to the cells and electrophoretic measurement of covalent binding to Ig subunits are described in refs 3,35,48. To evaluate the nucleophilic reactivity expressed on the surface of B cells in the preimmune repertoire (viz., the repertoire developed spontaneously without purposeful immunological challenge), viable splenocytes from BALB/c mice were treated with hapten CAL I. The control compound II is identical in structure to hapten CAL I, except that the phosphonate group is not esterified, which results in loss of covalent reactivity with nucleophilic residues (3,35). […] Flow cytometry confirmed the microscopy results. […] In 3 repeat experiments, the proportion of hapten CAL I-stained cells that were positive for the B cell marker CD19 was 82±4% (FIG. 20B). […] Most of the CAL fluorescence was restricted to the surfaces of the B cells (FIG. 20F).

human IgG = assay type: binding
IgG = assay type: biochemical, human
nine purified proteins = experiment: Screening of purified proteins for irreversible hapten CAL binding; settings: protein 1 μM, CAL 0.5 mM, 16 h, 37° C.
[3] = flow cytometry, 100 μM, 4 hours

inhibition of 3-calmodulin binding (calmodulin; VIP 100 μM, 3 10 μM) [%]	Molecule	Vapp values for the two subunits of anti-VIP Ab [1]	velocity of covalent I adduct formation with trypsin (trypsin) [AAU/min]	reaction with plasma proteins (plasma proteins)	Kd (gp120 (MN strain)) [µM]	first-order rate constant of covalent adduct formation k2 (gp120 (MN strain); pH 7.4, 37° C.) [min⁻¹]	IC50 [2] [µM]	loss of viability of cells (trypan blue exclusion) (murine splenocytes)	proportion of hapten CAL I-stained cells positive for CD19 (murine splenocytes; 3 repeat experiments) [%]	cells displaying intense staining (murine splenocytes; UV microscope, 400 lymphocytes counted, N 3)	cells with fluorescence intensities exceeding compound II-treated cells (murine splenocytes; [3])	subpopulation with very high fluorescence intensity (murine splenocytes; [3]) [%]	velocity for IgG relative to trypsin (human IgG) [fold]	velocity of covalent I adduct formation with IgG (human IgG) [AAU/min]	inhibition of IgG-catalyzed peptide-MCA cleavage (IgG)	proteins forming irreversible adducts (nine purified proteins)	second-order rate constant for reaction with calmodulin (calmodulin; calmodulin 1 μM, 3 10 μM or 1 0.5 mM, 37° C.) [M⁻¹ s⁻¹]
65	VIP: 28 amino acid peptide, devoid of the phosphonate group [reference compound]																
	N=C(N)c1ccc(C(NC(=O)CCCCCNC(=O)CCCC[C@@H]2SC[C@@H]3NC(=O)N[C@@H]32)P(=O)(Oc2ccccc2)Oc2ccccc2)cc1 (some centres unmarked) [hapten CAL I, Diphenyl N-(6-biotinamidohexanoyl)amino(4-amidinophenyl)methanephosphonate]	nearly equivalent	11.9±0.6	little or no adduct formation	710 ± 500	0.015 ± 0.007	36	No loss of viability	82±4	11±2	Seventy nine	14	14.5	172.7±14.2	inhibited	Seven of the nine	0.00353 ± 0.000283
